In US12384780B2, “PARP1 inhibitors and uses thereof” (XinThera, Inc., priority 2022, dated 2025):

Assays:
DLD-1 parental cells = assay: Cell growth inhibition assay (CellTiter-Glo), DLD-1 parental; type: cell-based; details: Homo sapiens, DLD-1, 168 h; 50 cells/well, 7 days, CellTiter Glo 2.0; read-out: DLD-1 parental pEC50 (converted)
Method: (§1) Cell proliferation was measured through the cell viability assay using DLD-1 BRCA2(−/−) and parental isogenic pair and MDA-MB-436 (mutated BRCA1) cell lines. The CellTiter-Glo (CTG) based cell viability assay is designed to determine the number of viable cells in the culture because of compound effect, by quantifying ATP, which indicates the presence of metabolically active cells.
(§2) DLD-1 BRCA2(−/−) and parental isogenic pair were cultured in RPMI 1640 supplemented with […] (FBS), and […] cells were cultured in DMEM supplemented with 10% FBS. Both were cultured at 37° C. with […]. Invention compounds were distributed to the 384 well plate (Corning, 3764) using Echo acoustic liquid handler to form a 1:3 serially diluted final concentration with top dose of 10 or 30 μM. The cells were seeded into the plate in the density of 50 cells/well (DLD-1 parental), 200 cells/well (DLD-1 BRCA2−/−), or 500 cells/well (MDA-MB-436). After a short spun, the cells were cultured in a well moisturized incubator at 37° C. with 5% CO2 for 7 days without disturbance. The cell viability was measured by CellTiter Glo 2.0 assay kit (Promega, G9243), and growth inhibition rate was calculated and plotted against final compound concentration, and the data were fitted in Xfit to generate IC50 values.

[1] = test system: MDA-MB-436 (mutated BRCA1) cells; assay: Cell growth inhibition assay (CellTiter-Glo), MDA-MB-436; type: cell-based; details: Homo sapiens, MDA-MB-436, 168 h, 500 cells/well, 7 days, CellTiter Glo 2.0; read-out: MDA-MB-436 pEC50 (converted)
Method: as §1, §2

DLD-1 BRCA2(−/−) cells = assay: Cell growth inhibition assay (CellTiter-Glo), DLD-1 BRCA2(−/−); type: cell-based; details: Homo sapiens, DLD-1, 168 h; 200 cells/well, 7 days, CellTiter Glo 2.0; read-out: DLD-1 BRCA2(−/−) pEC50 (converted)
Method: as §1, §2

PARP1 = target: T1, PARP1 (Homo sapiens, UniProt P09874); assay: Biochemical fluorescent polarization (FP) assay, displacement of PARPi-FL, PARP1; type: binding; details: 20 nM protein, 3 nM PARPi-FL, 4 h at room temperature; for IC50: read-out: FP PARP1 pIC50 (converted)
T1 construct: made in house
T1 sequence (P09874 whole entry): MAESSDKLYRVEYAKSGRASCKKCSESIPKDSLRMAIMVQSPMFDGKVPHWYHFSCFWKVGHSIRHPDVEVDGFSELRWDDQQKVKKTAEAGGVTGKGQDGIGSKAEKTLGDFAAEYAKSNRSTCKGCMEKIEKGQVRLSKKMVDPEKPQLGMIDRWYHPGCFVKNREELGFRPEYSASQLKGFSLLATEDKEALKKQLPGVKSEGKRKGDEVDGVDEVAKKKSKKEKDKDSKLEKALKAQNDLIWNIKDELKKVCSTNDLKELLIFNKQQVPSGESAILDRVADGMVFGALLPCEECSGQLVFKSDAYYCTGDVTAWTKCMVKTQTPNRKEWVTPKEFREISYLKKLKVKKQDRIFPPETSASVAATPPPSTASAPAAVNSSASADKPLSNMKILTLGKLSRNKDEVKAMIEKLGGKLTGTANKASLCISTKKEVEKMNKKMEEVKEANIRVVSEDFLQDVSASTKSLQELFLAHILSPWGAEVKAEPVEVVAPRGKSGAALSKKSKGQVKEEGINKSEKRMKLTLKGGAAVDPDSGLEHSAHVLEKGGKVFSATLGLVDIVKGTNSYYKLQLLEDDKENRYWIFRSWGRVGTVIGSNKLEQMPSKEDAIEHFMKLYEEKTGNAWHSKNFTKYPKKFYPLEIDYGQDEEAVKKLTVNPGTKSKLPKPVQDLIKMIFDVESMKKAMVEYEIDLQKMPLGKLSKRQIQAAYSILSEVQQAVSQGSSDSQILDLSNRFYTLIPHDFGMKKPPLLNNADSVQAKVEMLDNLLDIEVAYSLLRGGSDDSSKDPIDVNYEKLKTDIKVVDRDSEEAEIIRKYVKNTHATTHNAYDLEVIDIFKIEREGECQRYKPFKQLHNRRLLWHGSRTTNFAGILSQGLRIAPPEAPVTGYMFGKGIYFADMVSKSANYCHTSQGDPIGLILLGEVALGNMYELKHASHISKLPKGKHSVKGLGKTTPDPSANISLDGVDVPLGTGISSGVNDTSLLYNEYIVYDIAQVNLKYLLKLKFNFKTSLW
Method: (§3) Compounds were characterized using an assay measuring the displacement of a commercially available fluorescently labeled PARP 1/2 inhibitor (PARPi-FL, Tocris Biosciences, #6461) as exemplified in assays performed in WO2014/064149 and WO2021/013735A1. The assay was performed utilizing the following method: Compounds were dissolved in DMSO an Echo550 liquid handler was utilized to make serial dilations in the desired concentration range in Optiplate-384F plates. 100% DMSO was used for the high (with protein) and low (without protein) control samples. 20 nL of compound or DMSO alone was added to individual assay plate wells. PARP1 and PARP2 protein were expressed, purified, and diluted in assay buffer containing 50 mM Tris pH 8.0, 0.001% Triton X-100, 10 mM MgCl2, 150 mM NaCl to a final concentration of 20 nM. The PARPi-FL was then added at a final concentration of 3 nM. The assay plate was centrifuged at 1000 rpm for 1 min and incubated for 4 h at room temperature. […] [formula]

PARP2 = target: T2, PARP2 (Homo sapiens, UniProt Q9UGN5); assay: Biochemical fluorescent polarization (FP) assay, displacement of PARPi-FL, PARP2; type: binding; details: 20 nM protein, 3 nM PARPi-FL, 4 h at room temperature; read-out: FP PARP2 pIC50 (converted)
T2 construct: made in house
T2 sequence (Q9UGN5 whole entry): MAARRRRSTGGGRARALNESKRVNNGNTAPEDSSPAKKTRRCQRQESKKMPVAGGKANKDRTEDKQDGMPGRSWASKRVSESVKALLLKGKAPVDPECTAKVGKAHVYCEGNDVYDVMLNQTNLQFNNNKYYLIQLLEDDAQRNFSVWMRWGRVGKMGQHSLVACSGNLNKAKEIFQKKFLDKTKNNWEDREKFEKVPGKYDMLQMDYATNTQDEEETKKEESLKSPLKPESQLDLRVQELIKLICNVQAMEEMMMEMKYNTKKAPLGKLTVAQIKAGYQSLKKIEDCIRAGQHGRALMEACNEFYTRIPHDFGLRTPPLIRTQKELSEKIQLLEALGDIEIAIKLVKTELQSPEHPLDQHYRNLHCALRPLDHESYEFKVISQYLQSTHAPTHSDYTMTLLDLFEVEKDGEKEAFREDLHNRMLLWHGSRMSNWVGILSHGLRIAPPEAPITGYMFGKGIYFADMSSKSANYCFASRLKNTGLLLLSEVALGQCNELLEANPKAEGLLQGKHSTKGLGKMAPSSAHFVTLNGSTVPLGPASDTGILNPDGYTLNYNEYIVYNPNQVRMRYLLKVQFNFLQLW
Method: as §3

Row | EC50 [1] [nM] | EC50 (DLD-1 BRCA2(−/−) cells) [nM] | IC50 (PARP1) [nM] | IC50 (PARP2) [nM] | FP PARP1 pIC50 (PARP1) | SMILES | EC50 (DLD-1 parental cells) [nM]
1 | 2.51 | 3.16 | – | – | – | CCc1cc2ncc(CN3CCN(c4ccc(C#N)nc4)CC3)cc2[nH]c1=O [Example 3, 5-{4-[(7-ethyl-6-oxo-5H-1,5-naphthyridin-3-yl)methyl]piperazin-1-yl}pyridine-2-carbonitrile] | > 31600
2 | 2.51 | 2.51 | 5.01 | 5010 | – | Cc1cc2ncc(CN3CCN(c4ccc(C#N)cn4)CC3)cc2[nH]c1=O [Example 6] | > 31600
3 | > 1000 | > 1000 | > 100 | > 100000 | – | Cc1cc2ncc(CN3CCN(c4ncc(F)cc4F)CC3)cc2[nH]c1=O [Example 26] | –
4 | 39.8 | 12.6 | 7.94 | > 100000 | – | Cc1cc2ncc(CN3CCN(c4ccc(C#N)nc4C4CC4)CC3)cc2[nH]c1=O [Example 27] | –
5 | > 1000 | > 1000 | 15.8 | > 100000 | – | Cc1cc2ncc(CN3CCN(c4ncc(C#N)cc4F)CC3)cc2[nH]c1=O [Example 30] | –
6 | 6.31 | 15.8 | 6.31 | > 100000 | – | Cc1cc2ncc(CN3CCN(c4ccc(C#N)nc4C(F)F)CC3)cc2[nH]c1=O [Example 31] | –
7 | 2.51 | 3.16 | 10 | 63100 | – | Cc1cc2ncc(CN3CCN(c4ccc(F)cc4C#N)CC3)cc2[nH]c1=O [Example 35] | –
8 | 0.794 | 1 | 6.31 | 12600 | – | CCc1cc2ncc(CN3CCN(c4ccc(F)cc4C#N)CC3)cc2[nH]c1=O [Example 40] | –
9 | 2.51 | 3.16 | 5.01 | 6310 | – | Cc1cc2ncc(CN3CCN(c4ccc(C#N)cc4)CC3)cc2[nH]c1=O [Example 43] | –
10 | 1.58 | 2.51 | 10 | 3160 | – | Cc1cc2ncc(CN3CCN(c4ccc(C#N)c(F)c4)CC3)cc2[nH]c1=O [Example 44] | –
11 | 1 | 1 | 3.98 | 1260 | – | N#Cc1ccc(N2CCN(Cc3cnc4cc(C(F)F)c(=O)[nH]c4c3)CC2)nc1 [Example 48, 6-(4-{[7-(difluoromethyl)-6-oxo-5H-1,5-naphthyridin-3-yl]methyl}piperazin-1-yl)pyridine-3-carbonitrile] | –
12 | 1 | 1.26 | 7.94 | > 100000 | – | Cc1cc2ncc(CN3CCN(c4ccc(C#N)nc4Cl)CC3)cc2[nH]c1=O [Example 55] | –
13 | 7.94 | 7.94 | 12.6 | 15800 | – | Cc1cc2ncc(CN3CCN(c4cc(F)c(F)cn4)CC3)cc2[nH]c1=O [Example 58] | –
14 | 1 | 1.26 | 6.31 | > 100000 | – | N#Cc1ccc(N2CCN(Cc3cnc4cc(C(F)F)c(=O)[nH]c4c3)CC2)cc1 [Example 59] | –
15 | 2 | 3.16 | 6.31 | > 100000 | – | N#Cc1ccc(N2CCN(Cc3cnc4cc(Cl)c(=O)[nH]c4c3)CC2)c(F)n1 [Example 61] | –
16 | 0.794 | 0.794 | 6.31 | > 100000 | – | N#Cc1ccc(N2CCN(Cc3cnc4cc(Cl)c(=O)[nH]c4c3)CC2)c(Cl)n1 [Example 77] | –
17 | 3.16 | 3.98 | 6.31 | > 100000 | – | Cc1cc2ncc(CN3CCN(c4ccc(C#N)nc4F)CC3)cc2[nH]c1=O [Example 78] | –

Further lines, the compound ahead of its results:

Row | SMILES | EC50 [1] [nM] | EC50 (DLD-1 BRCA2(−/−) cells) [nM] | IC50 (PARP1) [nM] | IC50 (PARP2) [nM] | FP PARP1 pIC50 (PARP1) | EC50 (DLD-1 parental cells) [nM]
18 | Cc1cc2ncc(CN3CCN(c4ccc(C#N)cn4)[C@H](C)C3)cc2[nH]c1=O [Example 24] | 50.1 | 79.4 | 10 | > 100000 | – | –
19 | C[C@@H]1CN(Cc2cnc3cc(C4CC4)c(=O)[nH]c3c2)CCN1c1ccc(C#N)cn1 [Example 25] | 50.1 | 31.6 | 6.31 | > 100000 | – | –
20 | CCc1cc2ncc(CN3CCN(c4ccc(F)nc4)CC3)cc2[nH]c1=O [Example 34] | 39.8 | 50.1 | 10 | 50100 | – | –
21 | Cc1c(Cl)c(=O)[nH]c2cc(CN3CCN(c4ccc(C#N)cn4)CC3)cnc12 [Example 36, 6-{4-[(7-chloro-8-methyl-6-oxo-5H-1,5-naphthyridin-3-yl)methyl]piperazin-1-yl}pyridine-3-carbonitrile] | 1 | 1.26 | 5.01 | 2000 | – | –
22 | [2H]C([2H])(c1cnc2cc(C)c(=O)[nH]c2c1)N1CCN(c2ccc(C#N)cn2)CC1 [Example 37] | 1.58 | 3.16 | – | > 100000 | 8.5 | –
23 | CCc1cc2ncc(CN3CCN(c4ccc(C#N)c(F)c4)CC3)cc2[nH]c1=O [Example 38] | 0.501 | 0.631 | 5.01 | 501 | – | –
24 | CCc1cc2ncc(CN3CCN(c4ccc(C#N)cc4OC)CC3)cc2[nH]c1=O [Example 39] | 1.26 | 2 | 6.31 | > 100000 | – | –
25 | CCc1cc2ncc(CN3CCN(c4cc(F)c(C#N)cc4F)CC3)cc2[nH]c1=O [Example 41] | 1 | 0.794 | 12.6 | 2000 | – | –
26 | Cc1c(C(F)F)c(=O)[nH]c2cc(CN3CCN(c4ccc(C#N)cn4)CC3)cnc12 [Example 42, 6-(4-{[7-(difluoromethyl)-8-methyl-6-oxo-5H-1,5-naphthyridin-3-yl]methyl}piperazin-1-yl)pyridine-3-carbonitrile] | 1 | 2 | 50.1 | 316 | – | –
27 | CCc1cc2ncc(CN3CCN(c4ccc(C#N)cc4C#N)CC3)cc2[nH]c1=O [Example 52] | 0.631 | 0.794 | 25.1 | 12600 | – | –
28 | N#Cc1ccc(N2CCN(Cc3cnc4cc(Cl)c(=O)[nH]c4c3)CC2)nc1 [Example 57] | 2 | 2.51 | 5.01 | 50100 | – | 20000
29 | N#Cc1ccc(N2CCN(Cc3cnc4cc(Br)c(=O)[nH]c4c3)CC2)nc1 [Example 60, 6-{4-[(7-bromo-6-oxo-5H-1,5-naphthyridin-3-yl)methyl]piperazin-1-yl}pyridine-3-carbonitrile] | 1.26 | 1.58 | 6.31 | 2000 | – | –
30 | [2H]C([2H])(c1cnc2cc(C(F)F)c(=O)[nH]c2c1)N1CCN(c2ccc(C#N)cn2)CC1 [Example 63] | 1.26 | 1.58 | 15.8 | 794 | – | –
31 | CCc1cc2ncc(CN3CCC(c4ccc(C#N)cn4)CC3)cc2[nH]c1=O [Example 64] | 2 | 5.01 | 5.01 | > 100000 | – | –
32 | N#Cc1ccc(N2CCN(Cc3cnc4cc(Cl)c(=O)[nH]c4c3)CC2)cc1 [Example 66] | 1.58 | 2 | 5.01 | > 100000 | – | –
33 | [2H]C([2H])(c1cnc2cc(CC)c(=O)[nH]c2c1)N1CCN(c2ccc(F)cc2C#N)CC1 [Example 67] | 1.58 | 1.58 | 15.8 | 25100 | – | –
34 | Cc1cc2c(F)cc(CN3CCN(c4ccc(C#N)cn4)CC3)cc2[nH]c1=O [Example 79] | 5.01 | 7.94 | 10 | 12600 | – | –
35 | Cc1nc2ccc(CN3CCN(c4ccc(C#N)cn4)CC3)cc2[nH]c1=O [Example 84] | 7.94 | 6.31 | 10 | 50100 | – | –
